This note sets out measurements from PMC6348443 (Journal of Medicinal Chemistry, 2018).

In assay [1] the target is T1, KOR (Cavia porcellus, UniProt P41144).
T1 construct: Membranes were prepared from Sprague-Dawley rat brains or guinea-pig brains according to the described procedures; tissue Labortierkunde und Laborgenetik, Medizinische Universität Wien; host or cells: guinea-pig brain without cerebella
The assay is described as follows: competition radioligand binding, guinea-pig brain membranes, [3H]U69,593. The settings on record: guinea-pig brain membranes; read-out: opioid receptor binding Ki KOR.

Assay [2] deals with peripheral opioid receptors. The assay is described as follows: antagonism by naloxone methiodide in the acetic acid-induced writhing assay. It counts as in vivo, mouse. Particulars: sc co-administration with naloxone methiodide 1 mg/kg; agonist 50 or 200 μg/kg sc; 30 min. From the text: To determine whether targeted 6-amino acid and 6-dipeptide analogues inhibit writhing behavior in mice through peripheral opioid receptors activation, we used naloxone methiodide.[27]
Values are shown as mean of writhes ± SEM (n = 6–7 mice per group). ***P < 0.001 vs control group; ^#P < 0.05, ^##P < 0.01 and ^###P < 0.001 vs agonist treated group, ANOVA with Tukey’s post hoc test.
Writhing was induced in male CD1 mice by ip injection of a 0.6% acetic acid aqueous solution as described previously.[48],[62] Groups of mice were administered sc different doses of test compound or saline (control), and 5 min prior to testing (25 min after drug or saline), each animal received an ip injection of acetic acid solution. Each mouse was placed in individual transparent Plexiglas chambers, and the number of writhes was counted during a 10 min observation period. […] For the antagonism study, naloxone methiodide was sc co-administered with the respective opioid agonist, and writhing was assessed as described above.

The target in assay [3] is T2, KOR (Homo sapiens, UniProt P41145).
T2 construct: host or cells: CHO (CHO-hKOR)
Description: [35S]GTPγS binding assay, CHO-hKOR membranes. It counts as biochemical. Particulars: for EC50: [35S]GTPγS, CHO human KOR membranes, read-out: KOR EC50; for Emax: relative to reference full agonist U69,593, read-out: KOR % stim.

Assay [4] concerns male CD1 mice. The assay is described as follows: acetic acid-induced writhing assay after sc administration. The assay is classed as in vivo, mouse. The settings on record: for ED50: Mus musculus, 0.5 h, read-out: ED50 (95% CI), mice, sc, inhibition of writhing 30 min after drug administration.

Structures can show the parent of a compound that is named as a salt. Where only a bound is given, the exact number is not on record here.

For the compound `CC[C@H](N[C@H]1CC[C@@]2(OC)[C@H]3Cc4ccc(O)c5c4[C@@]2(CCN3C)[C@H]1O5)C(=O)O` [Compound 19a, (2S)-2-[(4,5α-Epoxy-3-hydroxy-14β-methoxy-17-methylmorphinan-6α-yl)amino]-2-ethylacetic Acid Dihydrochloride], in assay [1], the Ki stood at 144 ± 7 nM. The “effect of naloxone methiodide on antinociceptive effect” value in assay [2] is “reversed”. In addition, in assay [3], the EC50 is 942 ± 235 nM and the Emax turned out to be 61 ± 2%. Moreover, the ED50 in assay [4] was less than 0.02 mg/kg. Also, the “ED50 (95% CI)” value in assay [4] (mice, inhibition of writhing 30 min after drug administration) is 17.5 (5.13–59.6) μg/kg.
With `CO[C@@]12CC[C@H](N[C@H](C(=O)N[C@@H](Cc3ccc(O)cc3)C(=O)O)C(C)C)[C@@H]3Oc4c(O)ccc5c4[C@@]31CCN(C)[C@@H]2C5` [Compound 22a, (2S)-2-[[(4,5α-Epoxy-3-hydroxy-14β-methoxy-17-methylmorphinan-6α-yl)amino]-(2S)-3-methylbutyrylamino]-3-(4-hydroxyphenyl)propionic Acid], the Ki in assay [1] was found to be 69 ± 2.5 nM. Besides, the “effect of naloxone methiodide on antinociceptive effect” value in assay [2] is recorded as “reversed”. Besides, in assay [3], the 50% effective concentration (EC50) is 330 ± 179 nM and the Emax amounted to 50 ± 2%. In assay [4], the ED50 was 0.178 mg/kg. The “higher antinociceptive potency than morphine” value in assay [4] (writhing assay, mice) stood at 2.5 times.
